Experimental data as given in patent US10053465B2 (Incyte Corporation, priority 2015, dated 2018).

Tests used:
Tyro3 = Tyro3 (Homo sapiens (Human), UniProt Q06418); assay: biochemical; conditions: read-out: Tyro3IC50
Procedure: (§1) 0.1 ul test compounds dissolved in DMSO were transferred from compound plates to white 384-well assay plates (Greiner [sequence] plates). […] The plate was protected from light and incubated at room temperature for 60 min.

c-Mer = c-Mer (Homo sapiens (Human), UniProt Q12866); conditions: read-out: c-Mer IC50; HTRF, 60 min room temperature
Sequence of c-Mer (Q12866 21-999): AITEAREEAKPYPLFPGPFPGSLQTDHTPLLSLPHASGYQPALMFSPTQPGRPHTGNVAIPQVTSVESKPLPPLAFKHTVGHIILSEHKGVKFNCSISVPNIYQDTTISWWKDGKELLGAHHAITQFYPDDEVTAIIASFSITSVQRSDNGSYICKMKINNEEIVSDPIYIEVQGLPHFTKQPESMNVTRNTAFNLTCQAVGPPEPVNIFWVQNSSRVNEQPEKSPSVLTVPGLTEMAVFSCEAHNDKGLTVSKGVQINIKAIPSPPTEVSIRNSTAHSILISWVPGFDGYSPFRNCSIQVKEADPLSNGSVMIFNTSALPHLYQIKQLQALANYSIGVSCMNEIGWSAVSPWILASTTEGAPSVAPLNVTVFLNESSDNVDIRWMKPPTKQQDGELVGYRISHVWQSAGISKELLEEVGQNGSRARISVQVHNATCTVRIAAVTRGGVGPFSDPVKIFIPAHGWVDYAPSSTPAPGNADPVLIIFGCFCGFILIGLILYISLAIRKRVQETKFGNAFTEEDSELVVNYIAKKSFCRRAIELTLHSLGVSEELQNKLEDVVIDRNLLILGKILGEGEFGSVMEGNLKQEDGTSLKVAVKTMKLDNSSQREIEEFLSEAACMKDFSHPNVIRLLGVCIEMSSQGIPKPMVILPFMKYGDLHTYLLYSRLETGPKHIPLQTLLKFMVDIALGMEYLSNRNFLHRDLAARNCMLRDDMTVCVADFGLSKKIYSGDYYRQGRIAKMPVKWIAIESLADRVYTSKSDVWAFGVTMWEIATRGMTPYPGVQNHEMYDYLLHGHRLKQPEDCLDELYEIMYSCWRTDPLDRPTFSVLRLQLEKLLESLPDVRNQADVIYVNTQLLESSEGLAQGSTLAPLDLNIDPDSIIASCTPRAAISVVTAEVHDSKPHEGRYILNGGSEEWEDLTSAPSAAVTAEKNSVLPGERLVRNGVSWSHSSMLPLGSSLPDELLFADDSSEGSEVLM
Procedure: as §1

Sequence of Tyro3 (Q06418 41-890): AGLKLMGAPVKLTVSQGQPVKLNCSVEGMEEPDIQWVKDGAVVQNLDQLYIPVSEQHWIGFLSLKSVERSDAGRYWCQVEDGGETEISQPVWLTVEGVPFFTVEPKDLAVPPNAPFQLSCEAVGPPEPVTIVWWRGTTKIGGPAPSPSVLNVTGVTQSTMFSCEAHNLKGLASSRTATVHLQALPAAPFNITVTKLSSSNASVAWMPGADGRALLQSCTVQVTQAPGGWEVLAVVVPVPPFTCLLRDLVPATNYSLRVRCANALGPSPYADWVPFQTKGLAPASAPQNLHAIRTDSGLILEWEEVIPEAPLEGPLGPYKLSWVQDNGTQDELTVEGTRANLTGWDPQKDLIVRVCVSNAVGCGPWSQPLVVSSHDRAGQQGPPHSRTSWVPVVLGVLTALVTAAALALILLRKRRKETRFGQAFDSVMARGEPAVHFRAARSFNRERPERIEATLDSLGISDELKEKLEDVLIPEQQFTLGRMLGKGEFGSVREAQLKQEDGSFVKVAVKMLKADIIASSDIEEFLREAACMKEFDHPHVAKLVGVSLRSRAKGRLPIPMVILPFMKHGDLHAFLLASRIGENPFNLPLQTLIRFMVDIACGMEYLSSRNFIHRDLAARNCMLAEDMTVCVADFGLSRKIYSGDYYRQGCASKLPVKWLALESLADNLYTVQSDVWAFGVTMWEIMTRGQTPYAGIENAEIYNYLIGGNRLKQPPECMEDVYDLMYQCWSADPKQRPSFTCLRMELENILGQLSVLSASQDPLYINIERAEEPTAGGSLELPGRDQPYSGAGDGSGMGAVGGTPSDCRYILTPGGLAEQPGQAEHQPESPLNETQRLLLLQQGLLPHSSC

| SMILES | IC50 (Tyro3) [nM] | IC50 (c-Mer) [nM] |
| --- | --- | --- |
| N#CCC1(c2cccc(-c3ncnc4[nH]ccc34)c2)Cc2ccccc2C1 [Example 36, {2-[3-(7H-Pyrrolo[2,3-d]pyrimidin-4-yl)phenyl]-2,3-dihydro-1H-inden-2-yl}acetonitrile] | > 3000 |  |
| CC(C)C(=O)NCCC1(c2cccc(-c3ncnc4[nH]ccc34)c2)Cc2ccccc2C1 [Example 38, 2-Methyl-N-(2-{2-[3-(7H-pyrrolo[2,3-d]pyrimidin-4-yl)phenyl]-2,3-dihydro-1H-inden-2-yl}ethyl)propanamide] | > 3000 |  |
| NCC1(c2cccc(-c3ncnc4[nH]ccc34)c2)Cc2ccc(CN3CC[C@H](C(N)=O)C3)cc2C1 (stereo partly drawn) [Example 44, (3S)-1-((2-(3-(7H-Pyrrolo[2,3-d]pyrimidin-4-yl)phenyl)-2-(aminomethyl)-2,3-dihydro-1H-inden-5-yl)methyl)pyrrolidine-3-carboxamide] |  | > 3000 |
| NCC1(c2cccc(-c3ncnc4[nH]ccc34)c2)Cc2ccc(CN3CCC3)cc2C1 (centres unmarked) [Example 46, (2-(3-(7H-Pyrrolo[2,3-d]pyrimidin-4-yl)phenyl)-5-(azetidin-1-ylmethyl)-2,3-dihydro-1H-inden-2-yl)methanamine] |  | > 3000 |
| NCC1(c2cccc(-c3ncnc4[nH]ccc34)c2)Cc2ccc(CN3CC(F)C3)cc2C1 (centres unmarked) [Example 47, (2-(3-(7H-Pyrrolo[2,3-d]pyrimidin-4-yl)phenyl)-5-((3-fluoroazetidin-1-yl)methyl)-2,3-dihydro-1H-inden-2-yl)methanamine] |  | > 3000 |
| N#Cc1ccc2c(c1)CC(CNC(=O)C1CC1)(c1cccc(-c3ncnc4[nH]ccc34)c1)C2 (centres unmarked) [Example 50, N-({5-Cyano-2-[3-(7H-pyrrolo[2,3-d]pyrimidin-4-yl)phenyl]-2,3-dihydro-1H-inden-2-yl}methyl)cyclopropanecarboxamide] | > 3000 |  |
| NCC1(c2cccc(-c3ncnc4[nH]ccc34)c2)Cc2ccc(N3CCC(O)C3)cc2C1 (centres unmarked) [Example 54, 1-{2-(Aminomethyl)-2-[3-(7H-pyrrolo[2,3-d]pyrimidin-4-yl)phenyl]-2,3-dihydro-1H-inden-5-yl}pyrrolidin-3-ol] | > 3000 |  |
| N#CC1CCN(c2ccc3c(c2)CC(CN)(c2cccc(-c4ncnc5[nH]ccc45)c2)C3)CC1 (centres unmarked) [Example 59, 1-{2-(Aminomethyl)-2-[3-(7H-pyrrolo[2,3-d]pyrimidin-4-yl)phenyl]-2,3-dihydro-1H-inden-5-yl}piperidine-4-carbonitrile] |  | > 3000 |
| NCC1(c2cccc(-c3ncnc4[nH]ccc34)c2)Cc2ccc(NC3CCOCC3)cc2C1 (centres unmarked) [Example 60, N-{2-(Aminomethyl)-2-[3-(7H-pyrrolo[2,3-d]pyrimidin-4-yl)phenyl]-2,3-dihydro-1H-inden-5-yl}tetrahydro-2H-pyran-4-amine] |  | > 3000 |
| NCC1(c2cccc(-c3ncnc4[nH]ccc34)c2)Cc2ccc(N3CCCC3)cc2C1 (centres unmarked) [Example 61, 1-{5-Pyrrolidin-1-yl-2-[3-(7H-pyrrolo[2,3-d]pyrimidin-4-yl)phenyl]-2,3-dihydro-1H-inden-2-yl}methanamine] | > 3000 |  |
| COCCCNc1ccc2c(c1)CC(CN)(c1cccc(-c3ncnc4[nH]ccc34)c1)C2 (centres unmarked) [Example 66, 2-(Aminomethyl)-N-(3-methoxypropyl)-2-[3-(7H-pyrrolo[2,3-d]pyrimidin-4-yl)phenyl]indan-5-amine] | > 3000 |  |
| COCC1(Nc2ccc3c(c2)CC(CN)(c2cccc(-c4ncnc5[nH]ccc45)c2)C3)CC1 (centres unmarked) [Example 67, 2-(Aminomethyl)-N-[1-(methoxymethyl)cyclopropyl]-2-[3-(7H-pyrrolo[2,3-d]pyrimidin-4-yl)phenyl]indan-5-amine] | > 3000 |  |
| NCC1(c2cccc(-c3ncnc4[nH]ccc34)c2)Cc2ccc(-c3ccc4nccn4c3)cc2C1 (centres unmarked) [Example 73, 1-{5-Imidazo[1,2-a]pyridin-6-yl-2-[3-(7H-pyrrolo[2,3-d]pyrimidin-4-yl)phenyl]-2,3-dihydro-1H-inden-2-yl}methanamine] | > 3000 |  |
| Cc1cc2c(-c3cccc(C4(CN)Cc5ccccc5C4)c3)ncnc2[nH]1 [Example 93, 1-{2-[3-(6-Methyl-7H-pyrrolo[2,3-d]pyrimidin-4-yl)phenyl]-2,3-dihydro-1H-inden-2-yl}methanamine] | > 3000 |  |
